As a reminder, the IC50 is the concentration at which inhibition is half-maximal.

The text below walks through data of paper PMC12622015 (bioRxiv, 2025).

The target of this assay is T1, IRAK4 (Homo sapiens, UniProt Q9NWZ3).
T1 sequence (Q9NWZ3 1-460): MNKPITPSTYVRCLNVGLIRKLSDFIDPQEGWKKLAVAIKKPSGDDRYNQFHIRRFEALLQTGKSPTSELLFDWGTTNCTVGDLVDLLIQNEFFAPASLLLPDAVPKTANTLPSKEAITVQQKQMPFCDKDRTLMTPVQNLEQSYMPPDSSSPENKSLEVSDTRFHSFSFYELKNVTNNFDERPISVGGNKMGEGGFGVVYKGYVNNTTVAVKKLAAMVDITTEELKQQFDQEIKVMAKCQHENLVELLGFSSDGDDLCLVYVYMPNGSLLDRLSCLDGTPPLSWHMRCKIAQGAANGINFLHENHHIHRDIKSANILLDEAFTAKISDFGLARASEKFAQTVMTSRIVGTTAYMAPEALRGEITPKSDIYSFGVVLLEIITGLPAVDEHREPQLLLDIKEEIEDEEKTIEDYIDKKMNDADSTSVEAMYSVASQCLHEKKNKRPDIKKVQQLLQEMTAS
The experiment in a line: HotSpot kinase assay. The assay is classed as biochemical.

`COc1cc(N2CCN(C(=O)CCCC(=O)Nc3cccc4c3CN(C3CCC(=O)NC3=O)C4=O)CC2)ccc1NC(=O)c1cccc(-c2cc[nH]n2)n1` (stereo not shown) [PSP-0119, N-(4-(4-(5-((2-(2,6-dioxopiperidin-3-yl)-1-oxoisoindolin-4-yl)amino) −5-oxopentanoyl)piperazin-1-yl)-2-methoxyphenyl)-6-(1H-pyrazol-3-yl)picolinamide] registered an IC50 of 2.83 nM.
